Test results taken from the supplement of paper PMC10657565.
± gives the uncertainty stated by the source.

Assays:
Test in all cases: relative cell viability vs DMSO control (% of DMSO control); higher = less growth inhibition (higher viability)
Conditions in all cases: treatment time: 72 h
HCC1806 = test system: HCC1806
Experimental: (§1)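 Breast cancer cell lines (BT-474, HCC1806, SUM-159, SKBR-3) were seeded in triplicate in 96-well plates and treated 24 h after seeding with kinase inhibitors at 8 doses (3 nM to 30 uM). After 72 h, viability was read by CellTiter-Glo luminescence. Values were averaged over replicates and normalised to DMSO-only (0.1%) controls on each plate to give relative viability (% of DMSO).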

BT-474 = test system: BT-474
Experimental: as §1

SUM159 = test system: SUM159
Experimental: as §1

SKBR3 = test system: SKBR3
Experimental: as §1

Compound	relative cell viability (HCC1806; 0.003 µM)	relative cell viability (HCC1806; 0.01 µM)	relative cell viability (HCC1806; 0.03 µM)	relative cell viability (HCC1806; 0.1 µM)	relative cell viability (HCC1806; 0.3 µM)	relative cell viability (HCC1806; 1 µM)	relative cell viability (HCC1806; 3 µM)	relative cell viability (HCC1806; 30 µM)	relative cell viability (BT-474; 0.003 µM)	relative cell viability (BT-474; 0.01 µM)	relative cell viability (BT-474; 0.03 µM)	relative cell viability (BT-474; 0.1 µM)	relative cell viability (BT-474; 0.3 µM)	relative cell viability (BT-474; 1 µM)	relative cell viability (BT-474; 3 µM)	relative cell viability (BT-474; 30 µM)	relative cell viability (SUM159; 0.003 µM)	relative cell viability (SUM159; 0.01 µM)	relative cell viability (SUM159; 0.03 µM)	relative cell viability (SUM159; 0.1 µM)	relative cell viability (SUM159; 0.3 µM)	relative cell viability (SUM159; 1 µM)	relative cell viability (SUM159; 3 µM)	relative cell viability (SUM159; 30 µM)	relative cell viability (SKBR3; 0.003 µM)	relative cell viability (SKBR3; 0.01 µM)	relative cell viability (SKBR3; 0.03 µM)	relative cell viability (SKBR3; 0.1 µM)	relative cell viability (SKBR3; 0.3 µM)	relative cell viability (SKBR3; 1 µM)	relative cell viability (SKBR3; 3 µM)	relative cell viability (SKBR3; 30 µM)
COCCN1CCN(Cc2ccc(-c3n[nH]c4c3C(=O)c3c(NC(=O)NN5CCOCC5)cccc3-4)cc2)CC1	96.5 ± 1.7	83.3 ± 2.7	42.8 ± 16	11.7 ± 1.4	9.5 ± 1.1	9.2 ± 0.52	9.82 ± 0.46	2.82 ± 1.3	97.7 ± 4.1	86 ± 3.1	66.7 ± 7	64.5 ± 6.1	69.8 ± 8.4	70.8 ± 15	75.2 ± 7.9	11.2 ± 0.36	97.1 ± 6.1	60.4 ± 30	14.3 ± 16	7.11 ± 1	8.54 ± 0.38	9.97 ± 0.5	7.7 ± 0.38	0.538 ± 0.063	84.2 ± 3.5	71 ± 7.2	50 ± 7	18.1 ± 8.7	8.06 ± 0.7	7.43 ± 0.26	5.73 ± 0.075	0.827 ± 0.17
COCc1c(-c2ccc(NC(=O)Nc3cc(C(F)(F)F)ccc3F)c(F)c2)c2c(N)ncnn2c1CN1CCOCC1 [ACTB-1003]	–	–	–	–	–	–	–	–	–	–	–	–	–	–	–	–	101.4 ± 0.75	99.02 ± 0.34	96.9 ± 4.4	98.6 ± 1.8	91.7 ± 2.9	73.4 ± 5.4	39.5 ± 3.3	0.887 ± 0.066	105 ± 0.92	104 ± 2.9	107 ± 3.9	106 ± 2.7	107 ± 3.3	98.8 ± 2	78.2 ± 4	3.14 ± 0.2
c1cc(OCCN2CCCCC2)cc(-c2n[nH]c3ccc(-c4nnc[nH]4)cc23)c1 [CC-401]	–	–	–	–	–	–	–	–	–	–	–	–	–	–	–	–	102 ± 3.9	102 ± 5	101 ± 2.8	99.9 ± 2.5	98.4 ± 4.2	103 ± 2.2	105 ± 3.4	52.5 ± 2.7	104 ± 2.5	104 ± 5.8	105 ± 2.5	100 ± 3.7	99.8 ± 2.2	94.5 ± 4.1	91 ± 2.1	68.2 ± 3.2
Cc1cc(Nc2ncc(Cl)c(Nc3ccccc3S(=O)(=O)C(C)C)n2)c(OC(C)C)cc1C1CCNCC1 [Ceritinib]	–	–	–	–	–	–	–	–	–	–	–	–	–	–	–	–	103 ± 1.4	104 ± 2.6	103 ± 2.6	97.1 ± 3.6	90.8 ± 8.2	53.9 ± 11	1.44 ± 0.14	0.279 ± 0.078	104 ± 3	105 ± 2	102 ± 4.2	99.8 ± 3.8	96.4 ± 2.8	89.1 ± 5.3	10.7 ± 4.1	0.491 ± 0.1
COc1cc2ncnc(Nc3ccc(O)cc3)c2cc1OC [JANEX-1]	–	–	–	–	–	–	–	–	–	–	–	–	–	–	–	–	101 ± 6.1	103 ± 1.8	104 ± 2.1	102 ± 3.1	97.9 ± 3.6	96.2 ± 4.1	92.5 ± 1.9	59.2 ± 2.8	106 ± 3.1	104.9 ± 0.48	107 ± 1.8	105 ± 3.3	104 ± 2.6	101 ± 5.9	100 ± 1.5	61.4 ± 2.9
COC(=O)[C@@]1(O)C[C@H]2O[C@]1(C)n1c3ccccc3c3c4c(c5c6ccccc6n2c5c31)C(=O)NC4 [K-252a]	91.4 ± 5.5	81.8 ± 5.3	75.8 ± 6.2	62.3 ± 13	26.1 ± 8.3	13 ± 1.5	5.96 ± 2.1	0.762 ± 0.15	113 ± 7.6	106 ± 6.3	99.6 ± 7.7	91.6 ± 6.8	81.3 ± 4.5	58.9 ± 7.6	21.3 ± 4.6	1.44 ± 0.18	68.7 ± 6.9	63.8 ± 1.2	72.2 ± 3	34.7 ± 9.7	12.9 ± 2.6	6.47 ± 1.4	4.82 ± 0.85	2.12 ± 0.57	92.4 ± 4.2	90.4 ± 2	87.8 ± 4.2	81.8 ± 3.8	69.2 ± 4.8	54.3 ± 1.9	40 ± 2.8	1.88 ± 0.54
Cc1c(F)cc(C(=O)NC2CC2)cc1-c1ccc(C(=O)NCC(C)(C)C)cn1 [Losmapimod]	–	–	–	–	–	–	–	–	–	–	–	–	–	–	–	–	98.8 ± 3	97.2 ± 1.3	98 ± 7	99 ± 5.2	92.7 ± 2.7	91.5 ± 5	87.5 ± 2.5	68.5 ± 3.9	105 ± 4.8	102 ± 7	101 ± 5.5	95.9 ± 5.4	95.9 ± 5.7	93 ± 4.7	93.4 ± 2.4	73.6 ± 2.7
CN1CCN(c2nc(C3=C(c4c[nH]c5ccccc45)C(=O)NC3=O)c3ccccc3n2)CC1 [Sotrastaurin]	101 ± 2.4	98.3 ± 3.2	100 ± 1.9	103 ± 2.2	103 ± 3.5	104 ± 3.6	103 ± 1.9	43.3 ± 5.5	111 ± 4.3	108 ± 9.6	104 ± 15	99.8 ± 21	91 ± 26	84.5 ± 32	76.8 ± 29	42.4 ± 18	–	–	–	–	–	–	–	–	–	–	–	–	–	–	–	–
Cn1c(=O)c(F)c(Nc2ccc(I)cc2F)c2c(=O)n(C[C@@H](O)CO)cnc21 [TAK-733]	77.8 ± 5.2	75.1 ± 5.4	73.8 ± 3.5	72.7 ± 4.1	71.6 ± 2.5	71.6 ± 3.9	70.3 ± 3.3	39.2 ± 3.9	104 ± 16	103 ± 7.3	104 ± 11	94.8 ± 12	99.5 ± 11	93 ± 14	92 ± 9.1	36.3 ± 9.5	–	–	–	–	–	–	–	–	–	–	–	–	–	–	–	–
CN[C@@H]1C[C@H]2O[C@@](C)([C@@H]1OC)n1c3ccccc3c3c4c(c5c6ccccc6n2c5c31)C(=O)N[C@H]4O [UCN-01]	97.8 ± 4.1	76.3 ± 6.7	36.7 ± 12	9.05 ± 0.96	8.6 ± 0.48	7.53 ± 0.63	2.19 ± 0.3	0.853 ± 0.066	97.4 ± 3.3	89.9 ± 2	85.5 ± 2.9	85.9 ± 11	56.9 ± 3.2	34.5 ± 3.3	15.9 ± 0.39	6.69 ± 0.4	–	–	–	–	–	–	–	–	–	–	–	–	–	–	–	–
CC(C)c1cc(CNc2nc(Nc3cc(C4CC4)[nH]n3)cc(N3CCN(C)CC3)n2)on1 [XL-228]	–	–	–	–	–	–	–	–	–	–	–	–	–	–	–	–	74.7 ± 5.2	61.4 ± 1.7	54.32 ± 0.48	36.5 ± 1.4	26.8 ± 1.6	11 ± 0.61	6.45 ± 0.28	10.8 ± 0.58	103 ± 1.4	101 ± 2.3	101 ± 7.3	100 ± 6.3	115 ± 6.3	117 ± 3.9	52.2 ± 6.2	6.72 ± 0.86
